Assays:
[1] = Plasma concentration in nude mouse at 100 mg/kg, po measured at 1 hr; type: ADME, organism-based; set-up: dose 100 mg/kg, route oral
[2] = Plasma concentration in nude mouse at 100 mg/kg, po measured at 24 hrs; type: ADME, organism-based; set-up: dose 100 mg/kg, route oral
Rattus norvegicus = assay: Hepatic blood flow in Han Wistar rat at […], iv and 5 mg/kg, po; type: ADME, organism-based, Liver; details: in vivo
[3] = AUC (0 to 24 hrs) in nude mouse at 100 mg/kg, po; type: ADME, organism-based; set-up: time < 24 hr, dose 100 mg/kg, route oral; details: plasma
[4] = Plasma concentration in nude mouse at 100 mg/kg, po measured at 4 hrs; type: ADME, organism-based; set-up: dose 100 mg/kg, route oral
[5] = Bioavailability in Han Wistar rat at […], iv and 5 mg/kg, po; type: ADME, organism-based; details: in vivo
[6] = Volume of distribution at steady state in Han Wistar rat at […], iv and 5 mg/kg, po; type: ADME, organism-based; details: in vivo, read-out: Vdss

concentration at 1 h [1]: 11000 nM | concentration at 24 h [2]: 1800 nM | QH (Rattus norvegicus): 19% | AUC(0-t) at 24 h [3]: 48.7 µM·h | concentration at 4 h [4]: 1900 nM | bioavailability [5]: 65% | Vd [6]: 0.8 L/kg
SMILES: CN(c1ccnc(Nc2cc(N3CCOCC3)cc(N3CCOCC3)c2)n1)c1cccc2[nH]ncc12

From ChEMBL document CHEMBL1268821, “Inhibitors of the tyrosine kinase EphB4. Part 3: identification of non-benzodioxole-based kinase inhibitors” (Bioorg Med Chem Lett, 2010)
